This is an account of results in patent publication US7592326B2, “Method for stimulating the immune, inflammatory or neuroprotective response” (priority 2004, dated 2009).

Marks after values point to notes of the source that are not given here.

The test system of one test is human DCs. Nature of the test: Cytokine, chemokine and chemokine receptor expression in c-di-GMP-induced DC maturation (QPCR). It is filed as cell-based. As for the experimental part:
Buffy coats were obtained from healthy human volunteers and fractionated over Histopaque-1077. The peripheral blood mononuclear cells (PBMC) layer was recovered and erythrocyte-depleted by incubation in red blood cell lysis buffer for 5 minutes at room temperature. PBMCs were cultured in complete medium (RPMI 1640, 1% L-glutamine, 1% penicillin/streptomycin, and 10% low endotoxin FCS) for 2 hours in T75 flasks (Corning). Following incubation, nonadherent cells were removed by three washes with 1× PBS (Invitrogen, Carlsbad, Calif.). The remaining adherent cells were then cultured in complete medium supplemented with GM-CSF and IL-4 (50 ng/mL each). Human and murine IL-4 and GM-CSF were purchased from Peprotech (Rocky Hill, N.J.). On day 2 and day 4, the DC cultures received an additional dose of GM-CSF and IL-4 (50 ng/mL each). On day 5, non-adherent DC were harvested by gentle pipetting, counted, and plated in fresh medium containing GM-CSF and IL-4 (50 ng/mL each). On Day 6, some DC were matured by addition of 100 ng/ml LPS or 10-400 μM c-di-GMP for 1-24 hours.
Surface expression of various markers was assessed using CellQuest analysis software on a FACScalibur (Becton-Dickinson) flow cytometer. Surface expression was determined using the following FITC- and PE-conjugated antibodies: CD86-FITC (Research Diagnostics), CCR7-PE (R&D Systems), CD80-FITC, CD83-FITC, HLA-DR-FITC (BD Pharmingen). The isotype control antibodies were used accordingly in all experiments and were purchased from Pharmingen. Human DC were incubated in 1% human AB serum/PBS and were incubated with rat anti-CD16/CD32 (BD Phamingen) to block non-specific binding. Total RNA was extracted using the RNeasy kit according to the manufacturer's protocol (Qiagen). Briefly, after DNase I (Invitrogen) treatment, 1 μg of total RNA from each sample was used as template for the reverse transcription reaction. 50 ul of cDNA was synthesized using Oligo(dT)15, random hexamers, and multiscribe reverse transcriptase (Applied Biosystems). All samples were reverse transcribed under the same conditions (25° C. for 10 minutes, 48° C. for 30 minutes) and from the same reverse transcription master mix in order to minimize differences in reverse transcription efficiency. All oligonucleotide primers for QPCR were designed using Primer Express software 1.0 (PE Biosystems) and synthesized by Invitrogen. The 25 ul QPCR reaction contains 2 ul of cDNA, 12.5 ul of 2× SYBR Green master mix (Stratagene), and […] of sense and anti-sense primer. The reaction conditions were as follows: 50° C. for 2 minutes, 95° C. for 10 minutes then 40 cycles of 95° C. for 15 seconds and 60° C. for 1 minute. Emitted fluorescence for each reaction was measured during the annealing/extension phase, and amplification plots were analyzed using the MX4000 software version 3.0 (Stratagene). Quantity values (i.e., copies) for gene expression were generated by comparison of the fluorescence generated by each sample with standard curves of known quantities. Next, the calculated number of copies was divided by the number of copies of the housekeeping gene GAPDH.

The test system of a further test is ERK. As to the kind of experiment: Western blot signaling in human macrophages: ERK. The format is cell-based. How it is done:
Preparation of macrophages was performed as previously described (Akagawa et al., 1996). Briefly, fully differentiated macrophages from human PBMC were isolated from leukapheresis preparations obtained by the Blood Bank, Clinical Center, National Institutes of Health, Bethesda, Md. The leukocyte-rich preparation was overlaid on Accu-prep in 50 ml tubes and the tubes were centrifuged at 800 × g for 20 min at room temperature. PBMC fractions were collected, washed once with PBS at room temperature and twice with complete medium at 4° C. and resuspended in the same medium. Monocytes were further purified by using iso-osmotic Percoll gradient (Amersham Biosciences). At this stage, the purity of monocytes was higher than 90%. One and half million cells were placed on a 12-well plate in 1.5 ml RPMI1640 containing 50 ng/ml human M-CSF. On day 4, 1 ml of the medium was replaced with 1 ml of fresh medium containing 50 ng human M-CSF. On day 7, non-adherent cells were washed out and adherent cells were used as macrophages.
Western blot analysis of macrophages was performed as previously described (Matsuyama et al., 2003). Briefly, prepared macrophages were starved in RPMI 1640 without FCS for 10 h. Cells were rinsed three times with PBS, and treated with cyclic dinucleotide for various times. Cells were lysed on ice for 20 min in a buffer containing 50 mM NaCl, 20 mM Tris-HCl, 50 mM sodium fluoride, 30 mM Na4P207, 5 mM EGTA, 3 mM sodium orthovanadate, 1% Triton X-100, 1 mg/ml leupeptin, 1 mM PMSF, 1 mg/ml aprotinin, 1 mg/ml pepstatin A and 100 mM sodium orthovanadate pre-treated with H202. The lysates were spun in a microcentrifuge for 20 min and the supernatants were collected. Proteins were analyzed on 12% polyacrylamide gels by SDS-PAGE and transferred electrophoretically to nitrocellulose membranes at 150 mA for 1 h in a semi-dry system. The membranes were incubated with an antibody against either phosphorylated or nonphosphorylated p38 MAP kinase or ERK, followed by an appropriate secondary Ab coupled with horseradish peroxidase. […]
Background: Immunoblotting shows a protein as a band on a membrane.

The subject of the next test is lung leukocytes. As to the kind of experiment: Lung leukocyte accumulation in Klebsiella-infected mice (lung digest, flow cytometry). The format is in vivo, Balb/c mice.
Test [1] deals with influenza virus A/Puerto Rico/8/34 (H1N1, PR8). Particulars: in vivo.
For a further test, the system named is P. carinii. The format is in vivo, Pneumocystis carinii. Particulars: C57BL/6 mice pretreated 48- and 24 h prior to infection.

With `Nc1nc(=O)c2ncn([C@@H]3OC4COP(=O)(O)O[C@H]5[C@@H](O)[C@H](n6cnc7c(=O)nc(N)[nH]c76)O[C@@H]5COP(=O)(O)OC4C3O)c2[nH]1` (some centres unmarked) [c-di-GMP, Bis(3′→5′)-cyclic diguanylic acid], the “mRNA expression of chemokines IL-8/CXCL8, MIG/CXCL9, IP-10/CXCL10, I-TAC/CXCL11, MCP-1/CCL2, MIP-1a/CCL3, MIP-1b/CCL4, RANTES/CCL5” value with human DCs (200 uM, 1-24 hours) was “increased”. For the same compound, the “mRNA expression of IFN-a, IL-1b, TNF, IFN-g and IL-12 p40” value in the test on human DCs (200 uM, FIG. 11A) is on record as “stimulated”. For the same compound, in the test with human DCs (24 hours, data not shown), the “IL-8 and IP-10 protein production (ELISA of supernatants)” value is recorded as “consistent with the mRNA results”. In the test with human DCs (FIG. 11C), the “expression of CXCR4 and CCR7” value is listed as “upregulated”; the “expression of chemokine receptors CCR1 and CCR5” value is “downregulated”. Further, the “induction of Th2 cytokines (IL-4, IL-5, IL-10, IL-13)” value in the test with human DCs (human DCs) is “No evidence for the induction”. In addition, the “time of TNF-a peak following treatment” value in the test with human DCs (returns to basal level after 24 hours) was found to be 3 h. Also, the ERK phosphorylation result in the test with ERK (10- and 100 uM, human macrophages, FIG. 13B) is on record as “activate”. The “time of peak ERK phosphorylation” value in the test on ERK (absent at 20 min) was 5 min. Further, the “magnitude of ERK phosphorylation relative to LPS” value in the test with ERK (under the conditions tested) is “weaker”. In the test with lung leukocytes (48 hr post infection, p<0.01), the “increase in the number of neutrophils in the lungs of infected mice vs control-pretreated” value worked out at 3 fold and the “total number of lung leukocytes vs control-pretreated” value is reported as “significant increase”. Further, the “Total number lung cells” value with lung leukocytes (i.n. pretreatment 48 and 24 hr prior, lung digests 48 hrs after K. pneumoniae (kp), uninfected 2.7 × 10^7) is 4.67 × 10^7*. Moreover, in the test on lung leukocytes (i.n., data not shown), the “trafficking of myeloid or plasmacytoid DC to the lung in response to bacterial challenge” value was “did not alter”. In addition, in the test with lung leukocytes (lung digests 48 hrs after kp, uninfected 0.33 × 10^5), the “αβTcr^+, CD69^+” value was 3.7 × 10^5*. Besides, the “DX5^+, CD69^+” value in the test on lung leukocytes (lung digests 48 hrs after kp, uninfected 0.78 × 10^5) was 5.98 × 10^5**. Also, in the test with lung leukocytes (lung digests 48 hrs after kp, uninfected 0.8 × 10^6), the PMN is listed as 22 × 10^6**. The “DX5^+ (NK)” value in the test on lung leukocytes (lung digests 48 hrs after kp, uninfected 1.3 × 10^6) is 3.8 × 10^6. Besides, the “DX5^+, αβγδTcr^+(NK T^+)” value in the test on lung leukocytes (lung digests 48 hrs after kp, uninfected 1.6 × 10^5) is 6.8 × 10^5*. Further, in the test with lung leukocytes (lung digests 48 hrs after kp, uninfected 2.3 × 10^7), the Mono/Macrophage is recorded as 1.9 × 10^7. The “αβTcr^+” value in the test with lung leukocytes (lung digests 48 hrs after kp, uninfected 2.6 × 10^6) is 5.5 × 10^6**. Also, the “outcome compared to control mice” value in test [1] is reported as “increased survival, less weight loss”. The survival entry in the test on P. carinii is listed as “increased survival”.
